Source: US8188048B2 (priority 2006, dated 2012)
“And” between values parts separate entries of the source, which are not always exact repeats. Equal values may be shown once.

Tested on: CCI-rats (chronic constriction injury of the sciatic nerve); tactile allodynia in ipsilateral hindpaw, antinociception in contralateral hindpaw
Parameters: species or system Sprague-Dawley rats
Conditions: rat, in vivo

Q: Which results are given for “pGlu Gly Val Cys1 Cys2 Gly Tyr Lys Leu Cys3 His Hyp Cys4 [SEQ ID NO: 6]”?
A: ED10: 0.2 nmol; ED20: 0.4 nmol; ED50 for antinociception in the contralateral hindpaw: 15.2 nmol; ED50 for the alleviation of tactile allodynia in the ipsilateral hindpaw: 14.8 (±1.1) nmol and 15.7 (±3.9) nmol; change of mean PWT by 5 min post-dosing: more than doubled; duration of action: 2 to 3 h and > 4 h; duration of action relative to a similarly large dose of i.t. morphine (35 nmol): ~10 fold; duration of anti-allodynic response relative to the 10 nmol dose: > 7 fold and > 13 fold; duration of the anti-allodynic response: ~30 h and ~54 h; effect on PWT in both the ipsilateral and contralateral hindpaws: dose-dependent increase; extent and duration (PWT AUCs) of ipsilateral responses relative to contralateral responses: ~2 fold; time of peak anti-allodynic and antinociceptive effects: 1 to 1.5 h; time of peak antiallodynic and antinociceptive effects post-dosing: 15 min; time of peak effect: 1 to 1.5 h
